Patent US12606739B2, “Luminescent compound, method for producing luminescent compound, luminescent composition, luminescent thin film and luminescent particles” (KONICA MINOLTA, INC., priority 2020, dated 2026)

Assay: Luminescence quantum yield of luminescent particles (melamine resin particles, aqueous dispersion)
Type: physicochemical
Settings: luminescent particle, concentration of the dye in the particle 20%, absolute fluorescence quantum yield
Protocol: The synthesized luminescent compound (Exemplary Compound 1-1) according to one or more embodiments of the present invention was added to 22 mL of water and dissolved. Thereafter, 2 mL of a 5% aqueous solution of Emulsion® 430 (polyoxyethyleneoleyl ether, manufactured by Kao Corporation), an emulsifier for emulsion polymerization, was added to the solution. After the solution was heated to 70° C. with stirring on a hot stirrer, 0.65 g of NIKALAC MX-035 (manufactured by Nippon Carbide Industries Co., Inc.), a melamine resin raw material, was added thereto. […]
Specifically, centrifugation was performed for 15 minutes at 20000 G using a centrifuge (Micro Refrigerated Centrifuge Model 3740 manufactured by Kubota Corporation), the supernatant was removed, ultrapure water was added thereto, ultrasonic irradiation was performed, and redispersion was performed. […] The absolute fluorescence quantum yield of the obtained aqueous dispersion of the fluorescent particles was measured using the fluorescence quantum yield measuring device (C11347-01, manufactured by Hamamatsu Photonics K.K), and this was taken as the luminescence quantum yield of the luminescent particles.
With respect to the above-described Comparative Compound 1 and Comparative Compound 2, preparation of luminescent particles and measurement of the luminescence quantum yield were performed in the same manner. […]

| SMILES | Luminescence Quantum Yield [%] |
| --- | --- |
| CC(C)c1cccc(C(C)C)c1N1C(=O)c2cc(Oc3ccc(S(=O)(=O)O)cc3)c3c4c(Oc5ccc(S(=O)(=O)O)cc5)cc5c6c(cc(Oc7ccc(S(=O)(=O)O)cc7)c(c7c(Oc8ccc(S(=O)(=O)O)cc8)cc(c2c37)C1=O)c64)C(=O)N(c1c(C(C)C)cccc1C(C)C)C5=O [Comparative Compound 1] | 10 |
| CC(C)c1cccc(C(C)C)c1N1C(=O)c2cc(Oc3ccc(S(=O)(=O)O)cc3-c3ccccc3)c3c4c(Oc5ccc(S(=O)(=O)O)cc5-c5ccccc5)cc5c6c(cc(Oc7ccc(S(=O)(=O)O)cc7-c7ccccc7)c(c7c(Oc8ccc(S(=O)(=O)O)cc8-c8ccccc8)cc(c2c37)C1=O)c64)C(=O)N(c1c(C(C)C)cccc1C(C)C)C5=O [Comparative Compound 2] | 9 |
